Tests used:
large (Lg) crabgrass [1] = test: Test A preemergence; assay type: in vivo, Digitaria sanguinalis; conditions: Digitaria sanguinalis, pre-emergence, 240 h
In short: (§1)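 Pre- and postemergence greenhouse screen. Soil: loam + sand. Spray carrier: solvent mixture, non-phytotoxic, with surfactant. Post timing at 1–2 leaves, height 2–10 cm. Readout: visual injury on a 0–100 scale roughly 10 days after application, untreated plants as reference.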

barnyardgrass = test: Test A postemergence; assay type: in vivo, Echinochloa crus-galli; conditions: Echinochloa crus-galli, post-emergence, 240 h
In short: as §1

velvetleaf = test: Test A postemergence; assay type: in vivo, Abutilon theophrasti; conditions: Abutilon theophrasti, post-emergence, 240 h, 0 to 100 scale where 0 is no effect and 100 is complete control, read-out: Plant response rating, Velvetleaf
In short: as §1

corn [2] = test: Test A postemergence; assay type: in vivo, Zea mays; conditions: Zea mays, post-emergence, 240 h
In short: as §1

Italian ryegrass = test: Test C preemergence; assay type: in vivo, Lolium multiflorum; conditions: Lolium multiflorum, pre-emergence
In short: (§2)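 Injury was assessed visually against controls 13 to 15 days after application, with 0 meaning no effect and 100 full control; missing entries are shown as a dash. Preemergence sprays hit seeded loam–sand soil, postemergence sprays hit 1- to 4-leaf plants.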

wheat, winter [3] = test: Test C preemergence; assay type: in vivo, Triticum aestivum; conditions: Triticum aestivum, pre-emergence
In short: as §2

corn [4] = test: Test C preemergence; assay type: in vivo, Zea mays; conditions: Zea mays, pre-emergence
In short: as §2

johnsongrass [5] = test: Test C preemergence; assay type: in vivo, Sorghum halepense; conditions: Sorghum halepense, pre-emergence
In short: as §2

yellow nutsedge [6] = test: Test C preemergence; assay type: in vivo, Cyperus esculentus; conditions: Cyperus, pre-emergence
In short: as §2

wheat, winter [7] = test: Test C postemergence; assay type: in vivo, Triticum aestivum; conditions: Triticum aestivum, post-emergence
In short: as §2

corn [8] = test: Test C postemergence; assay type: in vivo, Zea mays; conditions: Zea mays, post-emergence
In short: as §2

large (Lg) crabgrass [9] = test: Test C postemergence; assay type: in vivo, Digitaria sanguinalis; conditions: Digitaria sanguinalis, post-emergence
In short: as §2

giant foxtail = test: Test C postemergence; assay type: in vivo, Setaria faberii; conditions: Setaria faberi, post-emergence
In short: as §2

johnsongrass [10] = test: Test C postemergence; assay type: in vivo, Sorghum halepense; conditions: Sorghum halepense, post-emergence
In short: as §2

yellow nutsedge [11] = test: Test C postemergence; assay type: in vivo, Cyperus esculentus; conditions: Cyperus, post-emergence
In short: as §2

Structure (SMILES): N#Cc1cccc(Oc2ncc(F)cn2)c1-n1cc(C(F)(F)F)cn1 [Compound 79, 3-[(5-fluoro-2-pyrimidinyl)oxy]-2-[4-(trifluoromethyl)-1H-pyrazol-1-yl]benzonitrile]
- pest or weed control at 125 g/ha (large (Lg) crabgrass [1]; 125 g ai/ha, 0 to 100 scale where 0 is no effect and 100 is complete control, read-out: Plant response rating, Crabgrass, Large): 100%
- pest or weed control at 500 g/ha (large (Lg) crabgrass [1]; 500 g ai/ha, 0 to 100 scale, 0 no effect, 100 complete control, approx. 10 days, read-out: Crabgrass, Large plant response rating): 100%
- pest or weed control at 125 g/ha (barnyardgrass; 125 g ai/ha, 0 to 100 scale where 0 is no effect and 100 is complete control, read-out: Plant response rating, Barnyardgrass): 100%
- pest or weed control at 500 g/ha (barnyardgrass; 500 g ai/ha, 0 to 100 scale, 0 no effect, 100 complete control, read-out: Plant response rating Barnyardgrass): 100%
- pest or weed control at 125 g/ha (velvetleaf; 125 g ai/ha): 100%
- pest or weed control at 500 g/ha (velvetleaf; 500 g ai/ha): 100%
- Corn plant response rating (crop injury, 0 = no effect, 100 = complete kill) at 125 g/ha (corn [2]; 125 g ai/ha, 0 to 100 scale where 0 is no effect and 100 is complete control): 80%
- plant injury at 500 g/ha (corn [2]; 500 g ai/ha, 0 to 100 scale, 0 no effect, 100 complete control, read-out: Plant response rating Corn): 100%
- pest or weed control at 62 g/ha (Italian ryegrass; 62 g ai/ha, preemergence, scale 0 (no effect) to 100 (complete control), read-out: Ryegrass, Italian plant response rating): 90%
- pest or weed control at 125 g/ha (Italian ryegrass; 125 g ai/ha, preemergence, scale 0 (no effect) to 100 (complete control), read-out: Ryegrass, Italian plant response rating): 90%
- pest or weed control at 250 g/ha (Italian ryegrass; 250 g ai/ha, preemergence, scale 0 (no effect) to 100 (complete control), read-out: Ryegrass, Italian plant response rating): 90%
- pest or weed control at 31 g/ha (Italian ryegrass; Preemergence, 31 g ai/ha, scale 0 to 100, 0 no effect, 100 complete control, read-out: Plant response rating, Ryegrass, Italian): 40%
- plant injury at 62 g/ha (wheat, winter [3]; 62 g ai/ha, preemergence, scale 0 (no effect) to 100 (complete control), read-out: Wheat plant response rating): 35%
- plant injury at 125 g/ha (wheat, winter [3]; 125 g ai/ha, preemergence, scale 0 (no effect) to 100 (complete control), read-out: Wheat plant response rating): 85%
- plant injury at 250 g/ha (wheat, winter [3]; 250 g ai/ha, preemergence, scale 0 (no effect) to 100 (complete control), read-out: Wheat plant response rating): 90%
- plant injury at 31 g/ha (wheat, winter [3]; Preemergence, 31 g ai/ha, scale 0 to 100, 0 no effect, 100 complete control, read-out: Plant response rating, Wheat): 10%
- plant injury at 125 g/ha (corn [4]; 125 g ai/ha, preemergence, scale 0 (no effect) to 100 (complete control), read-out: Corn plant response rating): 80%
- plant injury at 250 g/ha (corn [4]; 250 g ai/ha, preemergence, scale 0 (no effect) to 100 (complete control), read-out: Corn plant response rating): 95%
- Corn plant response rating (crop injury, 0 = no effect, 100 = complete kill) at 31 g/ha (corn [4]; Preemergence, 31 g ai/ha, scale 0 to 100, 0 no effect, 100 complete control): 40%
- pest or weed control at 62 g/ha (johnsongrass [5]; 62 g ai/ha, preemergence, scale 0 (no effect) to 100 (complete control), read-out: Johnsongrass plant response rating): 90%
- pest or weed control at 125 g/ha (johnsongrass [5]; 125 g ai/ha, preemergence, scale 0 (no effect) to 100 (complete control), read-out: Johnsongrass plant response rating): 100%
- pest or weed control at 250 g/ha (johnsongrass [5]; 250 g ai/ha, preemergence, scale 0 (no effect) to 100 (complete control), read-out: Johnsongrass plant response rating): 100%
- pest or weed control at 31 g/ha (johnsongrass [5]; Preemergence, 31 g ai/ha, scale 0 to 100, 0 no effect, 100 complete control, read-out: Plant response rating, Johnsongrass): 75%
- pest or weed control at 62 g/ha (yellow nutsedge [6]; 62 g ai/ha, preemergence, scale 0 (no effect) to 100 (complete control), read-out: Nutsedge, Yellow plant response rating): 15%
- pest or weed control at 125 g/ha (yellow nutsedge [6]; 125 g ai/ha, preemergence, scale 0 (no effect) to 100 (complete control), read-out: Nutsedge, Yellow plant response rating): 65%
- pest or weed control at 250 g/ha (yellow nutsedge [6]; 250 g ai/ha, preemergence, scale 0 (no effect) to 100 (complete control), read-out: Nutsedge, Yellow plant response rating): 75%
- pest or weed control at 31 g/ha (yellow nutsedge [6]; Preemergence, 31 g ai/ha, scale 0 to 100, 0 no effect, 100 complete control, read-out: Plant response rating, Nutsedge, Yellow): 10%
- plant injury at 125 g/ha (wheat, winter [7]; 125 g ai/ha, postemergence, read-out: Plant response rating (0 to 100), Wheat): 5%
- plant injury at 250 g/ha (wheat, winter [7]; 250 g ai/ha, postemergence, read-out: Plant response rating (0 to 100), Wheat): 35%
- plant injury at 31 g/ha (wheat, winter [7]; Postemergence, 31 g ai/ha, scale 0 to 100 (0 no effect, 100 complete control), 13 to 15 days, read-out: Plant response rating, Wheat): 0%
- plant injury at 62 g/ha (wheat, winter [7]; Postemergence, 62 g ai/ha, scale 0 to 100 (0 no effect, 100 complete control), read-out: Plant response rating, Wheat): 5%
- plant injury at 125 g/ha (corn [8]; 125 g ai/ha, postemergence, read-out: Plant response rating (0 to 100), Corn): 15%
- plant injury at 250 g/ha (corn [8]; 250 g ai/ha, postemergence, read-out: Plant response rating (0 to 100), Corn): 35%
- Corn plant response rating (crop injury, 0 = no effect, 100 = complete kill) at 31 g/ha (corn [8]; Postemergence, 31 g ai/ha, scale 0 to 100 (0 no effect, 100 complete control), 13 to 15 days): 5%
- Corn plant response rating (crop injury, 0 = no effect, 100 = complete kill) at 62 g/ha (corn [8]; Postemergence, 62 g ai/ha, scale 0 to 100 (0 no effect, 100 complete control)): 5%
- pest or weed control at 125 g/ha (large (Lg) crabgrass [9]; 125 g ai/ha, postemergence, read-out: Plant response rating (0 to 100), Crabgrass, Large): 30%
- pest or weed control at 250 g/ha (large (Lg) crabgrass [9]; 250 g ai/ha, postemergence, read-out: Plant response rating (0 to 100), Crabgrass, Large): 65%
- pest or weed control at 31 g/ha (large (Lg) crabgrass [9]; Postemergence, 31 g ai/ha, scale 0 to 100 (0 no effect, 100 complete control), 13 to 15 days, read-out: Plant response rating, Crabgrass, Large): 20%
- pest or weed control at 62 g/ha (large (Lg) crabgrass [9]; Postemergence, 62 g ai/ha, scale 0 to 100 (0 no effect, 100 complete control), read-out: Plant response rating, Crabgrass, Large): 20%
- pest or weed control at 125 g/ha (giant foxtail; 125 g ai/ha, postemergence, read-out: Plant response rating (0 to 100), Foxtail, Giant): 20%
- pest or weed control at 250 g/ha (giant foxtail; 250 g ai/ha, postemergence, read-out: Plant response rating (0 to 100), Foxtail, Giant): 65%
- pest or weed control at 31 g/ha (giant foxtail; Postemergence, 31 g ai/ha, scale 0 to 100 (0 no effect, 100 complete control), 13 to 15 days, read-out: Plant response rating, Foxtail, Giant): 10%
- pest or weed control at 62 g/ha (giant foxtail; Postemergence, 62 g ai/ha, scale 0 to 100 (0 no effect, 100 complete control), read-out: Plant response rating, Foxtail, Giant): 10%
- pest or weed control at 125 g/ha (johnsongrass [10]; 125 g ai/ha, postemergence, read-out: Plant response rating (0 to 100), Johnsongrass): 40%
- pest or weed control at 250 g/ha (johnsongrass [10]; 250 g ai/ha, postemergence, read-out: Plant response rating (0 to 100), Johnsongrass): 85%
- pest or weed control at 31 g/ha (johnsongrass [10]; Postemergence, 31 g ai/ha, scale 0 to 100 (0 no effect, 100 complete control), 13 to 15 days, read-out: Plant response rating, Johnsongrass): 5%
- pest or weed control at 62 g/ha (johnsongrass [10]; Postemergence, 62 g ai/ha, scale 0 to 100 (0 no effect, 100 complete control), read-out: Plant response rating, Johnsongrass): 10%
- pest or weed control at 125 g/ha (yellow nutsedge [11]; 125 g ai/ha, postemergence, read-out: Plant response rating (0 to 100), Nutsedge, Yellow): 5%
- pest or weed control at 250 g/ha (yellow nutsedge [11]; 250 g ai/ha, postemergence, read-out: Plant response rating (0 to 100), Nutsedge, Yellow): 25%
- pest or weed control at 31 g/ha (yellow nutsedge [11]; Postemergence, 31 g ai/ha, scale 0 to 100 (0 no effect, 100 complete control), 13 to 15 days, read-out: Plant response rating, Nutsedge, Yellow): 5%
- pest or weed control at 62 g/ha (yellow nutsedge [11]; Postemergence, 62 g ai/ha, scale 0 to 100 (0 no effect, 100 complete control), read-out: Plant response rating, Nutsedge, Yellow): 5%

From patent US9695155B2, “Herbicidal substituted pyrimidinyloxy benzene compounds” (E. I. DU PONT DE NEMOURS AND COMPANY, priority 2013, dated 2017)
